Measured values taken from patent publication US10344060B2 (priority 2013, dated 2019).
Like-named read-outs stand apart in the source and are kept apart here.

Columns and labels:
hNav1.4 = hNav1.4 (Homo sapiens, UniProt P35499); assay: cell-based; format: cell-based; details: for IC50: PatchXpress, read-out: PX hNav1.4 Tonic IC50; for Nav1.4/Nav1.7: ratio of PX tonic IC50 values
hNav1.7 = hNav1.7 (Homo sapiens, UniProt Q15858); assay: cell-based; format: cell-based; details: for IC50: PatchXpress, read-out: PX hNav1.7 Tonic IC50
Chain of hNav1.7 (Q15858 whole entry): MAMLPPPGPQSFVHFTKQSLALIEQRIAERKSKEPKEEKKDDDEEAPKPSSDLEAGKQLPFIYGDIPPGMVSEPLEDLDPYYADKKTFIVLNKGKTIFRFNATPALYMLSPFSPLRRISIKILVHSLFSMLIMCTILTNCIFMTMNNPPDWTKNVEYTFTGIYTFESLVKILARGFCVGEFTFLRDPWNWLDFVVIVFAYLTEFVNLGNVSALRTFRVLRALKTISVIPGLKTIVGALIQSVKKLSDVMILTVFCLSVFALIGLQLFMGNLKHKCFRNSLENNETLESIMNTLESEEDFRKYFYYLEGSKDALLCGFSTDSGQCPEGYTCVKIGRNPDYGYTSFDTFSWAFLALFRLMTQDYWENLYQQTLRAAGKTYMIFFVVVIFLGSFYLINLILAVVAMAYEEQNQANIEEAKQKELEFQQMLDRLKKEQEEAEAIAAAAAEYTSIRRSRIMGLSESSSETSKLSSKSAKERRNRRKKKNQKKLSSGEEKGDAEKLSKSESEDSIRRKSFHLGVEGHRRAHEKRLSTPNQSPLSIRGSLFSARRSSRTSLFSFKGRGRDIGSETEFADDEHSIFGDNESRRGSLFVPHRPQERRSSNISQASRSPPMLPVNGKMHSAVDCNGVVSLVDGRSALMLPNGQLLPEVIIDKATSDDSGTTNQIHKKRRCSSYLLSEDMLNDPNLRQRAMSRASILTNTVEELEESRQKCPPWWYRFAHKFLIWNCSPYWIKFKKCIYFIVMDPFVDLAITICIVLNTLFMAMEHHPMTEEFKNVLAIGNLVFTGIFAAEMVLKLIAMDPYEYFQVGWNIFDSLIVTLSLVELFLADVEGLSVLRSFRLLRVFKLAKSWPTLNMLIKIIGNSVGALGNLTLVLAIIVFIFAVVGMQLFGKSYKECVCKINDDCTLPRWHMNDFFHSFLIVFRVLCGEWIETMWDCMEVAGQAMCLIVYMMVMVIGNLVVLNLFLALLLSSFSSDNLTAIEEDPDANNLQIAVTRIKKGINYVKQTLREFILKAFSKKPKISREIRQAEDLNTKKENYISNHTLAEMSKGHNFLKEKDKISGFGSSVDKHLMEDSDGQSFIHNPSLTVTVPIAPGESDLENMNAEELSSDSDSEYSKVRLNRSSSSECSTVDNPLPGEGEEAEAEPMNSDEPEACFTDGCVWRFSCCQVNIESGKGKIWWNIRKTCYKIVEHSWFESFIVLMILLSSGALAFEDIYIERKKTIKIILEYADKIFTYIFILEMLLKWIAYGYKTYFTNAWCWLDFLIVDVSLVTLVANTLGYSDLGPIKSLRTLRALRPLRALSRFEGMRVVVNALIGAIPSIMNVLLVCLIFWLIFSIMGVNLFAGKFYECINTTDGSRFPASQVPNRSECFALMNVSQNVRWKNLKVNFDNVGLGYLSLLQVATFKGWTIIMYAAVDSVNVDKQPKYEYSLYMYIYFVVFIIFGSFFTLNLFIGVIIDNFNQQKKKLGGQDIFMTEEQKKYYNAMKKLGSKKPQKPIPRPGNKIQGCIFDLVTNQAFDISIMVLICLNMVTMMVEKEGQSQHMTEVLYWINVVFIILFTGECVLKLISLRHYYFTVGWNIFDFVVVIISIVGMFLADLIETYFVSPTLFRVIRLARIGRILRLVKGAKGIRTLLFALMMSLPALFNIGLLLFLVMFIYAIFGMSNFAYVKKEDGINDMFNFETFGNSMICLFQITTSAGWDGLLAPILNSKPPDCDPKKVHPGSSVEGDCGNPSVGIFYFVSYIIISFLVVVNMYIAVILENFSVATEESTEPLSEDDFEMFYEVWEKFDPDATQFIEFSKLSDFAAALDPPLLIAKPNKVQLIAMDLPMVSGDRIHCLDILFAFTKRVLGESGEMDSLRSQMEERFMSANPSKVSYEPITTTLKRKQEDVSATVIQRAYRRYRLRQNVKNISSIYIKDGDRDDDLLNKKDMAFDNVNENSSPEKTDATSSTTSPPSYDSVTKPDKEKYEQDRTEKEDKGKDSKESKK

Chain of hNav1.4 (P35499 whole entry): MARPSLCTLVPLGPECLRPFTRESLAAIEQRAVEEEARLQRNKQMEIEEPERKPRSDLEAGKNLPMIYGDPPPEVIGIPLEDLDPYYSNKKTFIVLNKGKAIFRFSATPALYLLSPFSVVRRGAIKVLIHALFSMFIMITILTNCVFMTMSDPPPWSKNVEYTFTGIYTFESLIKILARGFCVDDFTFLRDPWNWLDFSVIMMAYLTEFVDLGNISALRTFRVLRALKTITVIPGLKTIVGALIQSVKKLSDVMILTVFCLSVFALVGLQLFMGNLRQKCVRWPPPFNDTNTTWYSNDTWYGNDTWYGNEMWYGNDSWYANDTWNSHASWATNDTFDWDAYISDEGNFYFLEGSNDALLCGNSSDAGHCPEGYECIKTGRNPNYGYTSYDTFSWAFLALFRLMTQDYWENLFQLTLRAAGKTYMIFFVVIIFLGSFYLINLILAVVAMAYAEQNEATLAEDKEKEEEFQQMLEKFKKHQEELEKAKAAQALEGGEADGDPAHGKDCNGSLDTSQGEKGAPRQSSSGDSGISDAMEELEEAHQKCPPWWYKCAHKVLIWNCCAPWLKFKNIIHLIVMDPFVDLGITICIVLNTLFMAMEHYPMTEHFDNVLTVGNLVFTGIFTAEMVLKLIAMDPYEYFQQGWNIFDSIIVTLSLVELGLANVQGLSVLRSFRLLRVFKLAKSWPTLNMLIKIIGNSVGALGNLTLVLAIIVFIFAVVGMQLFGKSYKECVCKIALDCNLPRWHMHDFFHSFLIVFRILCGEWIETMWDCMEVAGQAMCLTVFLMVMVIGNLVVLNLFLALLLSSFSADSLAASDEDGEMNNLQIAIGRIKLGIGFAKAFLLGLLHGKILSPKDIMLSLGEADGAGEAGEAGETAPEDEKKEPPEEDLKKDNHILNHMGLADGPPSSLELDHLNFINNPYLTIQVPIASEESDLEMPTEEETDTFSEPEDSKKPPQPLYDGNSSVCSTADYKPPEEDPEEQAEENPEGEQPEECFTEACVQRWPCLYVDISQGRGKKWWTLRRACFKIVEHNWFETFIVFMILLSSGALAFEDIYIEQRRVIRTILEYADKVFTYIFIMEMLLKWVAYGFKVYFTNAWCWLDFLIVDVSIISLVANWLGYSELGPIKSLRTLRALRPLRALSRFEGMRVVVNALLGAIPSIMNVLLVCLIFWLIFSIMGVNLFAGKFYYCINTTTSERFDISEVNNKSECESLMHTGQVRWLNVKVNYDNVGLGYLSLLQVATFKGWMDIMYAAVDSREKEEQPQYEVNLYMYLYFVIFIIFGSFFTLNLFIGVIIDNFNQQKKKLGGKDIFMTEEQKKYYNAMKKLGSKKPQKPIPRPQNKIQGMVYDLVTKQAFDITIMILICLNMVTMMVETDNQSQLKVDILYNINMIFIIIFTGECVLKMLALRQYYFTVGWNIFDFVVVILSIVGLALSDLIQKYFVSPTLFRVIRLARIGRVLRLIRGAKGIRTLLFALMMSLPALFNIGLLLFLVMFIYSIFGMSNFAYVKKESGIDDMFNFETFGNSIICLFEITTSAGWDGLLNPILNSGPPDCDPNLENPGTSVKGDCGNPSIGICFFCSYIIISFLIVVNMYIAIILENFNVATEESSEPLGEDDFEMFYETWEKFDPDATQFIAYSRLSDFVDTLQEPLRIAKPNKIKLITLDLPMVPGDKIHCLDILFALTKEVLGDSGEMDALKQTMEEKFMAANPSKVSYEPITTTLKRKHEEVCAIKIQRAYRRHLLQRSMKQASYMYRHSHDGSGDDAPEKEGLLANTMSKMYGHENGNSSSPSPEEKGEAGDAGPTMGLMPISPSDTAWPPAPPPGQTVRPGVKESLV

SMILES | IC50 (hNav1.4; tonic, Table 11) [nM] | IC50 (hNav1.7; tonic, Table 11) [nM] | Nav1.4/Nav1.7 (hNav1.7; ratio of PX tonic IC50 values, Table 11) | IC50 (hNav1.4; Table 12, tonic block) [nM] | Nav1.4/Nav1.7 (hNav1.4; Table 12) | IC50 (hNav1.7; Table 12, tonic block) [nM]
CC[C@H](C)[C@H](NC(=O)[C@@H](NC(=O)[C@H](CCCCN)NC(=O)[C@H](CCCNC(=N)N)NC(=O)[C@@H]1CSSC[C@@H]2NC(=O)[C@H](C)NC(=O)[C@H](CCCNC(=N)N)NC(=O)[C@H](CCCCN)NC(=O)[C@H](CO)NC(=O)[C@H](CC(=O)O)NC(=O)[C@@H]3CSSC[C@H](NC(=O)[C@H](CCCNC(=N)N)NC(=O)[C@H](CC(C)C)NC(=O)CNC(=O)[C@H](CCC(=O)O)NC(=O)[C@H](CSSC[C@H](NC(=O)[C@@H](N)Cc4ccc(O)cc4)C(=O)N[C@@H](CCC(N)=O)C(=O)N[C@@H](CCCCN)C(=O)N[C@@H](Cc4c[nH]c5ccccc45)C(=O)N[C@@H](CCSC)C(=O)N[C@@H](Cc4c[nH]c5ccccc45)C(=O)N[C@@H]([C@@H](C)O)C(=O)N3)NC2=O)C(=O)N[C@@H](CCC(=O)O)C(=O)N[C@@H](CC(C)C)C(=O)N[C@@H](Cc2c[nH]c3ccccc23)C(=O)N1)[C@@H](C)CC)C(N)=O [compound 64] | 4340 | 930 | 5 |  |  | 
C#CC[C@H](N)C(=O)N[C@@H](Cc1ccc(O)cc1)C(=O)N[C@H]1CSSC[C@@H]2NC(=O)[C@@H]3CSSC[C@@H](C(=O)N[C@@H](CCCNC(=N)N)C(=O)N[C@@H](CCCCN)C(=O)N4CCC[C@H]4C(=O)N[C@H](C(N)=O)[C@@H](C)CC)NC(=O)[C@H](Cc4c[nH]c5ccccc45)NC(=O)[C@H](CC(C)C)NC(=O)[C@H](CCCCN)NC(=O)[C@H](CSSC[C@H](NC(=O)[C@H]([C@@H](C)O)NC(=O)[C@H](Cc4c[nH]c5ccccc45)NC(=O)[C@H](CCCC)NC(=O)[C@H](Cc4c[nH]c5ccccc45)NC(=O)[C@H](CCCCN)NC(=O)[C@H](CCC(N)=O)NC1=O)C(=O)N[C@@H](CC(=O)O)C(=O)N[C@@H](CO)C(=O)N[C@@H](CCCCN)C(=O)N[C@@H](CCCNC(=N)N)C(=O)N[C@@H](C)C(=O)N3)NC(=O)[C@H](CCCNC(=N)N)NC(=O)[C@H](CC(C)C)NC(=O)CNC(=O)[C@H](CCC(=O)O)NC2=O [compound 657] |  |  |  | 206 | 105 | 1.97
C#CC[C@H](N)C(=O)N[C@H]1CSSC[C@@H]2NC(=O)[C@@H]3CSSC[C@@H](C(=O)N[C@@H](CCCNC(=N)N)C(=O)N[C@@H](CCCCN)C(=O)N[C@@H](CCC(=O)O)C(=O)N[C@H](C(N)=O)[C@@H](C)CC)NC(=O)[C@H](Cc4c[nH]c5ccccc45)NC(=O)[C@H](CC(C)C)NC(=O)[C@H](CCCCN)NC(=O)[C@H](CSSC[C@H](NC(=O)[C@H]([C@@H](C)O)NC(=O)[C@H](Cc4c[nH]c5ccccc45)NC(=O)[C@H](CCCC)NC(=O)[C@H](Cc4c[nH]c5ccccc45)NC(=O)[C@H](CCCCN)NC(=O)[C@H](CCC(N)=O)NC1=O)C(=O)N[C@@H](CC(=O)O)C(=O)N[C@@H](CO)C(=O)N[C@@H](CCCCN)C(=O)N[C@@H](CCCNC(=N)N)C(=O)N[C@@H](C)C(=O)N3)NC(=O)[C@H](C(C)C)NC(=O)[C@H](CC(C)C)NC(=O)CNC(=O)[C@H](CCC(=O)O)NC2=O [compound 1688] |  |  |  | 1120 | 280 | 3.99
C#CC[C@H](N)C(=O)NCCCC[C@@H]1NC(=O)[C@H](CCCNC(=N)N)NC(=O)[C@H](CCCCN)NC(=O)[C@H](CO)NC(=O)[C@H](CC(=O)O)NC(=O)[C@@H]2CSSC[C@@H]3NC(=O)[C@H](CCCNC(=N)N)NC(=O)[C@H](CC(C)C)NC(=O)CNC(=O)[C@H](CCC(=O)O)NC(=O)[C@H](CSSC[C@H](NC(=O)[C@H](Cc4ccc(O)cc4)NC(=O)[C@@H](N)CCC)C(=O)N[C@@H](CCC(N)=O)C(=O)N[C@@H](CCCCN)C(=O)N[C@@H](Cc4c[nH]c5ccccc45)C(=O)N[C@@H](CCCC)C(=O)N[C@@H](Cc4c[nH]c5ccccc45)C(=O)N[C@@H]([C@@H](C)O)C(=O)N2)NC(=O)[C@H](CSSC[C@@H](C(=O)N[C@@H](CCCNC(=N)N)C(=O)N[C@@H](CCCCN)C(=O)N[C@H](C(=O)N[C@H](C(N)=O)[C@@H](C)CC)[C@@H](C)CC)NC(=O)[C@H](Cc2c[nH]c4ccccc24)NC(=O)[C@H](CC(C)C)NC(=O)[C@H](CCCCN)NC3=O)NC1=O [compound 431] |  |  |  |  | 13 | 1.63
